ChEMBL document CHEMBL1201862, “PubChem BioAssay data set” (2004)
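All cell lines were grown in 96-well plates and treated with compound for 48 hours. Abbreviation: GI50, concentration required for 50% inhibition of growth.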 Calls of active or inactive are those of the source. Cut-off read from the data, not from the text of the source: active = GI50 up to about 1.1 µM and inactive = higher.

Experiments:
Experiment in all cases: growth of human tumour cells (NCI), 48 h
M14 = tested on: M14
T47D = tested on: T47D
NCI/ADR-RES = tested on: NCI/ADR-RES
HL-60 = tested on: HL-60
BT-549 = tested on: BT-549
MOLT-4 = tested on: MOLT-4
NCI-H23 = tested on: NCI-H23
K562 = tested on: K562
UACC-62 = tested on: UACC-62
SK-MEL-2 = tested on: SK-MEL-2
LOX IMVI = tested on: LOX IMVI
KM12 = tested on: KM12
IGROV-1 = tested on: IGROV-1
NCI-H226 = tested on: NCI-H226
DU-145 = tested on: DU-145
UACC-257 = tested on: UACC-257
MDA-N = tested on: MDA-N
OVCAR-4 = tested on: OVCAR-4
NCI-H522 = tested on: NCI-H522

Measured: GI50

NC(=O)c1ccc(NS(=O)(=O)c2ccc(N)cc2)nc1
inactive: M14 > 100 µM | T47D > 100 µM | NCI/ADR-RES > 100 µM | HL-60 > 100 µM | BT-549 > 100 µM | MOLT-4 > 100 µM | NCI-H23 > 100 µM | K562 > 100 µM | UACC-62 > 100 µM | SK-MEL-2 > 100 µM | LOX IMVI > 100 µM | KM12 > 100 µM | IGROV-1 > 100 µM | NCI-H226 > 100 µM | DU-145 > 100 µM | UACC-257 > 100 µM | MDA-N > 100 µM | OVCAR-4 > 100 µM

CC(=O)OC12c3ccccc3C(c3ccccc31)C1C(=O)N(c3ccccc3O)C(=O)C12 (stereo unspecified)
inactive: M14 > 100 µM | T47D > 100 µM | NCI/ADR-RES > 100 µM | HL-60 76.9 µM | BT-549 > 100 µM | MOLT-4 > 100 µM | NCI-H23 41.6 µM | K562 > 100 µM | UACC-62 > 10 µM | LOX IMVI > 100 µM | KM12 92.7 µM | IGROV-1 > 100 µM | NCI-H226 > 100 µM | DU-145 > 100 µM | UACC-257 > 100 µM | MDA-N > 100 µM | OVCAR-4 > 100 µM

COc1ccc(N2C(=O)/C(=C\c3cc(OC)c(OC)c(OC)c3)S(=O)(=O)C2c2ccccc2)cc1 (stereo unspecified)
inactive: M14 19.4 µM | T47D 24.7 µM | NCI/ADR-RES 17.2 µM | NCI-H522 23.1 µM | BT-549 22 µM | MOLT-4 28.5 µM | NCI-H23 25.8 µM | K562 12.7 µM | UACC-62 21.6 µM | SK-MEL-2 8.55 µM | LOX IMVI 20 µM | KM12 29.2 µM | NCI-H226 30.8 µM | DU-145 71.3 µM | UACC-257 52.7 µM | MDA-N 13.9 µM | OVCAR-4 42 µM

N#CC(=S)Nc1ccc(Cl)c(Cl)c1
inactive: M14 24.6 µM | T47D 27.1 µM | NCI/ADR-RES 26.3 µM | BT-549 27 µM | MOLT-4 17.3 µM | NCI-H23 31.9 µM | K562 11.7 µM | UACC-62 19 µM | SK-MEL-2 27.7 µM | LOX IMVI 26.6 µM | KM12 26.9 µM | IGROV-1 13.1 µM | NCI-H226 22.4 µM | DU-145 45.6 µM | UACC-257 28.2 µM | MDA-N 32.7 µM

COc1cc(COC(=O)N2CC=CC2C(=O)O)c([N+](=O)[O-])cc1OC (stereo unspecified)
inactive: M14 > 100 µM | T47D > 100 µM | NCI/ADR-RES > 100 µM | HL-60 > 100 µM | BT-549 > 100 µM | MOLT-4 > 100 µM | NCI-H23 > 100 µM | K562 > 100 µM | UACC-62 > 100 µM | KM12 > 100 µM | IGROV-1 > 100 µM | NCI-H226 > 100 µM | DU-145 > 100 µM | UACC-257 > 100 µM | MDA-N > 100 µM

CN(C)/C=N\c1nncc2[nH]cnc12
inactive: M14 55.8 µM | T47D > 100 µM | NCI/ADR-RES > 100 µM | NCI-H522 > 100 µM | HL-60 > 10 µM | BT-549 > 100 µM | MOLT-4 77.6 µM | NCI-H23 > 100 µM | K562 43.6 µM | UACC-62 51.8 µM | SK-MEL-2 > 100 µM | LOX IMVI 55.8 µM | KM12 > 100 µM | IGROV-1 > 100 µM | NCI-H226 > 100 µM | UACC-257 92.7 µM | MDA-N 79.8 µM | OVCAR-4 > 100 µM
